For seven compounds, IC50, Activity and inhibition results are on record in ChEMBL document CHEMBL5390279, “Hydrolytic Activity of Mitochondrial F1FO-ATP Synthase as a Target for Myocardial Ischemia-Reperfusion Injury: Discovery and In Vitro and In Vivo Evaluation of Novel Inhibitors” (J Med Chem, 2023).

What is called pIC50 is −log10 of the IC50, conventionally taken in molar units.

pIC50: −log10 of the molar value. The source made the active and inactive calls. The rule behind the calls is not given here.

Series [1] is described as follows: Inhibition of mouse heart mitochondrial F0F1-ATP synthase hydrolytic activity incubated for 10 mins by microplate reader analysis. In kind it is mitochondria, Mitochondria.
Series [2] concerns H9c2. As to the kind of experiment: Induction of mitochondrial membrane potential loss in rat H9c2 cells assessed as increase in fluorescence intensity at 100 uM in presence of rotenone by TMRM dye based assay. In kind it is cell-based.
The subject of series [3] is H9c2. As to the kind of experiment: Induction of mitochondrial membrane potential loss in rat H9c2 cells assessed as increase in fluorescence intensity at 50 uM in presence of rotenone by TMRM dye based assay. In kind it is cell-based.
Series [4] deals with H9c2. The series is described as follows: Induction of mitochondrial membrane potential loss in rat H9c2 cells assessed as increase in fluorescence intensity at 10 uM in presence of rotenone by TMRM dye based assay. In kind it is cell-based.
Series [5] deals with H9c2. As to the kind of experiment: Cytotoxicity against rat H9c2 cells assessed as reduction in cell viability at 100 uM incubated for 24 hrs by MTT assay. In kind it is toxicity, cell-based. To be noted: h9c2, 24 h.
Series [6] concerns H9c2. The series is described as follows: Induction of mitochondrial membrane potential loss in rat H9c2 cells assessed as increase in fluorescence intensity at 50 uM by TMRM dye based assay. In kind it is cell-based.
For series [7], the system named is H9c2. The series is described as follows: Induction of mitochondrial membrane potential loss in rat H9c2 cells assessed as increase in fluorescence intensity at 10 uM by TMRM dye based assay. In kind it is cell-based.
The subject of series [8] is H9c2. As to the kind of experiment: Cytotoxicity against rat H9c2 cells assessed as reduction in cell survival at 100 uM incubated for 24 hrs by MTT assay. In kind it is toxicity, cell-based. To be noted: h9c2, 24 h. On the technique in general: Tetrazolium assays rely on reduction of a dye to a coloured formazan, in cell work by metabolically active cells.
Series [9] concerns H9c2. As to the kind of experiment: Cytotoxicity against rat H9c2 cells assessed as reduction in cell survival at 50 uM incubated for 24 hrs by MTT assay. To be noted: h9c2, 24 h. In kind it is toxicity, cell-based.
Series [10] is filed under the species Mus musculus. As to the kind of experiment: Effect on mPTP opening in C57BL6 mouse heart mitochondria assessed as number of calcium pulses by measuring green-5N fluorescence intensity at 10 to 1000 uM by calcium retention capacity assay. To be noted: dose 10-1000 µM.
For series [11], the species on record is Mus musculus. As to the kind of experiment: Effect on mPTP opening in C57BL6 mouse heart mitochondria assessed as number of calcium pulses by measuring green-5N fluorescence intensity at 10 to 1000 uM in presence of cyclosporin A by calcium retention capacity assay. To be noted: dose 10-1000 µM.
Series [12] deals with Mus musculus. As to the kind of experiment: Cardioprotective activity against cardiac ischemia/reperfusion induced C57BL/6J mouse model assessed as reduction in cardiac infarct size at 3.5 mg/kg, iv prior to 5 mins of myocardial ischemia and 2 hrs of reperfusion (Rvb= 45.4 +/- 1.8 %). Also noted: scale not given: the % may be the effect or the level left. To be noted: time 125 min, 2.083 h. In kind it is functional.

Series [13] concerns H9c2. The series is described as follows: Induction of mitochondrial membrane potential loss in rat H9c2 cells assessed as increase in fluorescence intensity at 3 uM in presence of rotenone by TMRM dye based assay. In kind it is cell-based.
Series [14] concerns H9c2. The series is described as follows: Induction of mitochondrial membrane potential loss in rat H9c2 cells assessed as increase in fluorescence intensity at 3 uM by TMRM dye based assay. In kind it is cell-based.
Series [15] relates to H9c2. As to the kind of experiment: Induction of mitochondrial membrane potential loss in rat H9c2 cells assessed as increase in fluorescence intensity at 100 uM by TMRM dye based assay. In kind it is cell-based.
The test system of series [16] is Mus musculus. As to the kind of experiment: Cardioprotective activity against cardiac ischemia/reperfusion induced C57BL/6J mouse model assessed as reduction in cardiac infarct size at 5 mg/kg, iv prior to 5 mins of myocardial ischemia and 2 hrs of reperfusion (Rvb= 45.4 +/- 1.8 %). Also noted: scale not given: the % may be the effect or the level left. In kind it is functional. The conditions noted are these: time 125 min, 2.083 h.

The species named for series [17] is Mus musculus. As to the kind of experiment: Inhibition of mouse heart mitochondrial F0F1-ATP synthase hydrolytic activity at 200 uM incubated for 10 mins by microplate reader analysis. The conditions noted are these: Mitochondria.

`O=c1c(O)c(-c2ccc(O)c(O)c2)oc2cc(O)cc(O)c12` [QUERCETIN] showed a pIC50 in series [1] of 3.89.
Consider `COc1cc2oc(-c3ccc(O)cc3O)c(C=O)c2c(O)c1CC=C(C)C`, for which the pIC50 in series [1] was 3.52.
`COc1ccc(Cn2nc(-c3ccccc3)c3cc(Nc4ccc(N5CCN(C)CC5)cc4)nc(N4CCN(C)CC4)c32)cc1`: the pIC50 in series [1] was 4.07. Further, the outcome in series [2] and in series [3] was Active. Moreover, the result in [4], in series [6], in [7], in [10] and in series [11] was inactive. In addition, the Activity entry in [5] is on record as “Toxic”; in series [8], “Toxic”; in [9], “Non-Toxic”; in [12] it was 34.8%.
On to `CC[C@@H]1/C=C/C=C/C[C@H](C)[C@@H](O)[C@](C)(O)C(=O)[C@H](C)[C@@H](O)[C@H](C)C(=O)[C@H](C)[C@@H](O)[C@H](C)/C=C/C(=O)O[C@H]2[C@@H](C)[C@@H](CC1)O[C@@]1(CC[C@@H](C)[C@@H](C[C@H](C)O)O1)[C@@H]2C`, for which, in series [1], the pIC50 is 4.73. Moreover, the outcome in [13] was Active. The result in series [14], in series [4] and in [7] was inactive.
In series [1], `COc1ccc(Cn2nc(-c3ccccc3)c3cc(Nc4ccc(N5CCN(C)CC5)cc4)nc(N4CCNCC4)c32)cc1` showed a pIC50 of 3.97. The outcome in series [2] and in series [3] was Active. For the same compound, the result in series [4], in series [6], in [7], in [10] and in [11] was inactive. Besides, the Activity entry in series [5] is given as “Toxic”; in [9], “Non-Toxic”; in [12] it was 33.4%.
In series [1], `O=C(Oc1cc(S(=O)(=O)c2ccccc2)ccc1[N+](=O)[O-])c1ccc(Cl)cc1` gave a pIC50 of 3.46. The outcome in series [3] and in series [15] was inactive. Moreover, the Activity entry is “Non-Toxic” in series [8] and 39.6% in series [16].
In the case of `COc1ccc(Cn2nc(-c3cccc(F)c3)c3cc(Nc4ccc(N5CCN(C)CC5)cc4)nc(N4CCOCC4)c32)cc1`, in series [1], the pIC50 was 2.70. In series [17], the inhibition result is “Active”.
